In ChEMBL document CHEMBL1201862, “PubChem BioAssay data set” (2004):
Calls of active or inactive are those of the source. Rule as the data show it, for most assays here: actives have a measured IC50 and inactives only a lower limit.

Legend:
[1] = target: T1, Interleukin-8 (Homo sapiens, UniProt P10145); assay: SAR analysis of Tumor necrosis factor alpha (TNF-alpha) induced IL-8 secretion in MCF-7/NOD1 cells - Set 2. [Related pubchem assays (depositor defined):AID1575, AID2250, AID2260]; format: functional, cell-based
[2] = target: T2, Nucleotide-binding oligomerization domain-containing protein 1 (Homo sapiens, UniProt Q9Y239); assay: SAR analysis of NF-kappaB dependent luciferase using DAP as an inducer - Set 2. [Related pubchem assays (depositor defined):AID1566, AID1575, AID1578, AID1579, AID1849, AID1852, AID2264]; format: functional
[3] = target: T3, Nucleotide-binding oligomerization domain-containing protein 2 (Homo sapiens, UniProt Q9HC29); assay: inhibition of MDP-driven NOD2 NF-kB reporter – cell-based, set 3, SAR follow-up (AID 2799); format: functional
[4] = tested on: HEK293; assay: SAR analysis of compounds that are cytotoxic to HEK293 - Set 3. [Related pubchem assays (depositor defined):AID1575, AID1578, AID1848, AID1849, AID2001, AID2333, AID2334, AID2335, AID2337, AID2469]; format: functional, cell-based; settings: Homo sapiens
[5] = target: T3, Nucleotide-binding oligomerization domain-containing protein 2; assay: inhibition of NOD2 signaling – set 2, SAR follow-up (AID 2475); format: functional
[6] = target: Tumor necrosis factor (Homo sapiens, UniProt P01375); assay: analog potency on TNFa NF-kB signaling – cell-based, set 3, SAR follow-up (AID 2801); format: functional
[7] = target: T2, Nucleotide-binding oligomerization domain-containing protein 1; assay: SAR analysis of compounds that inhibit NOD1 - Set 3. [Related pubchem assays (depositor defined):AID1566, AID1575, AID1578, AID1849, AID1852, AID2333, AID2335, AID2466]; format: functional
[8] = tested on: HEK293; assay: SAR analysis of compounds that are cytotoxic to HEK293 - Set 2. [Related pubchem assays (depositor defined):AID1575, AID1578, AID1849, AID2001, AID2333, AID2334, AID2335, AID2337, AID2800]; format: functional, cell-based; settings: Homo sapiens
[9] = target: T1, Interleukin-8; assay: SAR analysis of GM-Tri-DAP induced IL-8 secretion in MCF-7/NOD1 cells - Set 2. [Related pubchem assays (depositor defined):AID1575, AID1578, AID2333]; format: functional, cell-based
[10] = target: T4, Hexokinase-1 (Homo sapiens, UniProt P19367); assay: HK1 enzyme activation by HKDC1 hits – biochemical, selectivity assay for HKDC1 activator project, dose response (AID 504762); format: functional
T4 sequence (P19367 whole entry): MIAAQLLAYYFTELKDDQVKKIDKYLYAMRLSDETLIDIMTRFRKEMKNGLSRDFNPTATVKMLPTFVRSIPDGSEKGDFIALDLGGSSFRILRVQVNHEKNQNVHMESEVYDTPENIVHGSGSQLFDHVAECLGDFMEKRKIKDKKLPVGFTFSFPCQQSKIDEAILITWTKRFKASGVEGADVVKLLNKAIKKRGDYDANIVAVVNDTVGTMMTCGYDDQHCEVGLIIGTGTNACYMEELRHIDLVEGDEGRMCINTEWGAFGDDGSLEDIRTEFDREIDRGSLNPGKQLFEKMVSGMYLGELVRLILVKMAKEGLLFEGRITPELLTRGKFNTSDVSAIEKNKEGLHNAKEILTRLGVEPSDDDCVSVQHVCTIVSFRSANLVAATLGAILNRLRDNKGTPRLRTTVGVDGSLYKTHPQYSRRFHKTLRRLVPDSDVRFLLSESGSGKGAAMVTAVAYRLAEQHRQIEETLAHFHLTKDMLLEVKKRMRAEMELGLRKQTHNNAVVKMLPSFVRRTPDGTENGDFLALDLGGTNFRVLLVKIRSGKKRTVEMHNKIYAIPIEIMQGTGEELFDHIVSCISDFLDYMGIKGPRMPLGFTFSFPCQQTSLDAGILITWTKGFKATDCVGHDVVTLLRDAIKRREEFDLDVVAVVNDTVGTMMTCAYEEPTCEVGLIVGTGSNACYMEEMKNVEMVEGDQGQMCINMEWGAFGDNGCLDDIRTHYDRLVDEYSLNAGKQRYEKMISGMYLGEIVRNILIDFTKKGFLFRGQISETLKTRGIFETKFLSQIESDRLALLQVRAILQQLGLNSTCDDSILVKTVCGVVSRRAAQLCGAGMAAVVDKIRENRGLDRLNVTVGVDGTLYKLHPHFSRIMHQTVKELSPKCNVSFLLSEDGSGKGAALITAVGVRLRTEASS

[11] = target: T5, Hexokinase HKDC1 (Homo sapiens, UniProt Q2TB90); assay: activation of HKDC1 glucose phosphorylation – biochemical, W721R variant, dose response (AID 504730); format: functional
T5 sequence (Q2TB90 whole entry): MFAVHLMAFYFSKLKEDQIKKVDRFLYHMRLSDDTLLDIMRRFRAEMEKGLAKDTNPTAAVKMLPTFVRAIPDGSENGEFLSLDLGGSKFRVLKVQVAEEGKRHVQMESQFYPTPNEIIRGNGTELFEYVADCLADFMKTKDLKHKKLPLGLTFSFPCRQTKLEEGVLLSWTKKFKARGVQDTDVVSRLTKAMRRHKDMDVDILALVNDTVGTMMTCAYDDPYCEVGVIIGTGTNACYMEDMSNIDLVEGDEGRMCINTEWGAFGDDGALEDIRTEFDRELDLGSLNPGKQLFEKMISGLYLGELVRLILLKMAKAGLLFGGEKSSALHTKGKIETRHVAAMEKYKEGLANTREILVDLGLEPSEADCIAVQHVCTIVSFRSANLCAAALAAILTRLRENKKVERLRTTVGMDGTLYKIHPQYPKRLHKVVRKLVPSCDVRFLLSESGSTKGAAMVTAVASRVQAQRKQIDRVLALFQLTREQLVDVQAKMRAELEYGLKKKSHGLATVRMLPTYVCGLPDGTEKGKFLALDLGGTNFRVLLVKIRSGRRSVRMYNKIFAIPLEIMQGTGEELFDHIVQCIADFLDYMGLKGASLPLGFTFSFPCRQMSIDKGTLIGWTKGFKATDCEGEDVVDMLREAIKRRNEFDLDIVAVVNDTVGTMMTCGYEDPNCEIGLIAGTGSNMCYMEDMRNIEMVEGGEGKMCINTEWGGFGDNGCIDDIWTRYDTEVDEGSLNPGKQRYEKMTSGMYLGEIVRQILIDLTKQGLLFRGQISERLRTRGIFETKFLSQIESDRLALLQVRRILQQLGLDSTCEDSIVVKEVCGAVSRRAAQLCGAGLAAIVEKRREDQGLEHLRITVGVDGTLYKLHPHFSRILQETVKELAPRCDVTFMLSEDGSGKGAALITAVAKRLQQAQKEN

[12] = target: Signal transducer and activator of transcription 3 (Homo sapiens, UniProt P40763); assay: STAT3 blockade with qPCR and toxicity readouts – cell-based, STAT1 panel, cytotoxicity, late-stage follow-up, panel member STAT3 Inhibition (AID 2078)
[13] = target: Signal transducer and activator of transcription 1-alpha/beta (Homo sapiens, UniProt P42224); assay: STAT3 blockade with qPCR and toxicity readouts – cell-based, STAT1 panel, cytotoxicity, late-stage follow-up, panel member STAT1 Inhibition (AID 2078)
[14] = target: T6, Intestinal-type alkaline phosphatase (Homo sapiens, UniProt P09923); assay: Dose Response confirmation of uHTS hits from a small molecule inhibitors of human intestinal alkaline phosphatase via a luminescent assay. [Related pubchem assays (depositor defined):AID2544, AID2574]; format: functional
[15] = target: T6, Intestinal-type alkaline phosphatase; assay: human intestinal alkaline phosphatase activators, dose response, biochemical, luminescence, uHTS hits (AID 463120); format: functional
[16] = target: T7, Tyrosine-protein phosphatase non-receptor type 22 (Homo sapiens, UniProt Q9Y2R2); assay: SAR LYP1 Fluorescent Assay using OMFP substrate for In Vitro dose response studies - Set 3. [Related pubchem assays (depositor defined):AID1779, AID1784, AID2140, AID2686]; format: functional
T7 sequence (Q9Y2R2 whole entry): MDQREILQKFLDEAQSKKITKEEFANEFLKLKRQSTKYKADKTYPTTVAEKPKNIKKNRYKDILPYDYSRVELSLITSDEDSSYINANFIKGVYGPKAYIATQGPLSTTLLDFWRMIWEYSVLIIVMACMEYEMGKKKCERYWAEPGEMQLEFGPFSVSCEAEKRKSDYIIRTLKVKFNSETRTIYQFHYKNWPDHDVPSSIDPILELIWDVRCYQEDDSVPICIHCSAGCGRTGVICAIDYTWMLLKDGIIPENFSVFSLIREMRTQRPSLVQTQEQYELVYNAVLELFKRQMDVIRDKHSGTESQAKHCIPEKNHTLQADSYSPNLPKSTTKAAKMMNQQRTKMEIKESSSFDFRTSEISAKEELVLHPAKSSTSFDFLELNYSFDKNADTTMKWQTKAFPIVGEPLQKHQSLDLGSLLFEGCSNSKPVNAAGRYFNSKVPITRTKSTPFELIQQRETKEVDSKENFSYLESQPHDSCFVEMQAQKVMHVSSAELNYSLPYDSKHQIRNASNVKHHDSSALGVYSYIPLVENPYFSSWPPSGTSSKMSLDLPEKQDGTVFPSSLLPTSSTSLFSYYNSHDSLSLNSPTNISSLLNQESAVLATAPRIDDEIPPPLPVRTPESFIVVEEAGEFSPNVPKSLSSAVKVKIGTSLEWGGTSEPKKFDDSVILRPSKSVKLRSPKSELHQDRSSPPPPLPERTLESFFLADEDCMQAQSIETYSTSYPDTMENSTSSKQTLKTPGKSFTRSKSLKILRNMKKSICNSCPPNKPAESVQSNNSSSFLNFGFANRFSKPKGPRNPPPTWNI

[17] = target: T8, Dual specificity protein phosphatase 3 (Homo sapiens, UniProt P51452); assay: SAR VHR1 Fluorescent Assay for In Vitro dose response studies. [Related pubchem assays (depositor defined):AID1654, AID1661, AID1878, AID1992, AID2004, AID2070, AID2085]; format: functional
[18] = target: Tyrosine-protein phosphatase non-receptor type 12 (Homo sapiens, UniProt Q05209); assay: SAR Selectivity Analysis of small molecule inhibitors of PEST using pCAP in a fluorescence assay. [Related pubchem assays (depositor defined):AID1779, AID1784, AID2135]; format: functional
[19] = target: T9, Tyrosine-protein phosphatase non-receptor type 7 (Homo sapiens, UniProt P35236); assay: inhibition of hematopoietic tyrosine phosphatase HePTP – biochemical, set 2, SAR follow-up (AID 449736); format: functional
T9 sequence (P35236 whole entry): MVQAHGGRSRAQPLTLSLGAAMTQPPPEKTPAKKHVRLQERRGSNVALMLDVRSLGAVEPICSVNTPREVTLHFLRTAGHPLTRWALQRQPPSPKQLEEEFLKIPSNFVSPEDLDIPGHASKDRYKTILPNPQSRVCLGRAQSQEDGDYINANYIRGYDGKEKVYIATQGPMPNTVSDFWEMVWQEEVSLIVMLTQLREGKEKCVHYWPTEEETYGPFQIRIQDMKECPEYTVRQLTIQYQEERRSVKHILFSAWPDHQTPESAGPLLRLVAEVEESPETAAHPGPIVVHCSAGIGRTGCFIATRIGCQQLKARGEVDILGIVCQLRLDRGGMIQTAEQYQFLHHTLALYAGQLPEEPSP

[20] = target: T7, Tyrosine-protein phosphatase non-receptor type 22; assay: inhibition of lymphoid tyrosine phosphatase LYP – biochemical, pCAP fluorogenic substrate, fluorescence, set 3, SAR follow-up (AID 449727); format: functional
[21] = target: T9, Tyrosine-protein phosphatase non-receptor type 7; assay: redox-active compounds inhibiting HePTP phosphatase – biochemical, fluorescence, mechanism study (AID 2068); format: functional
[22] = target: T10, Dual specificity protein phosphatase 6 (Rattus norvegicus, UniProt Q64346); format: functional;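 also: confirmatory in vitro dose-response testing of MKP-3 inhibition; recombinant His-tagged MKP-3 made in E. coli BL21 with OMFP substrate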
T10 sequence (Q64346 whole entry): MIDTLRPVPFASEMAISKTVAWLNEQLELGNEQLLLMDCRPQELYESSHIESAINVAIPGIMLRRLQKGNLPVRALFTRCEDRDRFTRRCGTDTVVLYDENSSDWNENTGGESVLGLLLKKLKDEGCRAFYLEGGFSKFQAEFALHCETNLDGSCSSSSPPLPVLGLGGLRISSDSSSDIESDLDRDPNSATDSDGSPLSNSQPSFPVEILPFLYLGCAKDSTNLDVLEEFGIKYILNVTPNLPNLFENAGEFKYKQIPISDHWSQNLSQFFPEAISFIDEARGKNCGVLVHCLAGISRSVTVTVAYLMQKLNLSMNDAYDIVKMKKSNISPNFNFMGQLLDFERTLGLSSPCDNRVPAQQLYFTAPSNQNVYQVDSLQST

[23] = target: T8, Dual specificity protein phosphatase 3; assay: SAR VHR1 absorbance Assay for In Vitro dose response studies. [Related pubchem assays (depositor defined):AID1654, AID1661, AID1878, AID1992, AID2004]

T6 sequence (P09923 whole entry): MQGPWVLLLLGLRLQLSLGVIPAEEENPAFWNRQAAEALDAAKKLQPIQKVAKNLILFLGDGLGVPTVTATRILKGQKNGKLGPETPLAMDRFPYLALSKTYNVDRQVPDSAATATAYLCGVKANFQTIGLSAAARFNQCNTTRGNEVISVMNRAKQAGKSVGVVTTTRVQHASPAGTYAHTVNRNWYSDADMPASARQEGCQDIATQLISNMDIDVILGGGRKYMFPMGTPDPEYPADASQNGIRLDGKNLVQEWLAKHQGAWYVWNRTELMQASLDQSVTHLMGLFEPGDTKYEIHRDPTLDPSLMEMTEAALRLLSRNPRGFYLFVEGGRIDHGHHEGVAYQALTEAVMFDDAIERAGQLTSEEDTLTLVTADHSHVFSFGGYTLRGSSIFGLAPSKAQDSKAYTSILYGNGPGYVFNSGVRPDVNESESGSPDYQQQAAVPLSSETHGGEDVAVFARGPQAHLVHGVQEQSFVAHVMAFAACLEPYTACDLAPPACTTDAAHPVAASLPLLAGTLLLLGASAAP
T1 sequence (P10145 whole entry, the tested form may be a part): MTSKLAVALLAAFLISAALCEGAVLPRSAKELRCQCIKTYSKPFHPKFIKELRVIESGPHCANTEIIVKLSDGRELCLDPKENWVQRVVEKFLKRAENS
T8 sequence (P51452 whole entry): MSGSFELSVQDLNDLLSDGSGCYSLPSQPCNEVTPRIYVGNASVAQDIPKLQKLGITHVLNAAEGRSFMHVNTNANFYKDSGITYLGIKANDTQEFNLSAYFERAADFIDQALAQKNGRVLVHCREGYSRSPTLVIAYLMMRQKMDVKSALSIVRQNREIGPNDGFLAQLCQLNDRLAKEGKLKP
T3 sequence (Q9HC29 whole entry, the tested form may be a part): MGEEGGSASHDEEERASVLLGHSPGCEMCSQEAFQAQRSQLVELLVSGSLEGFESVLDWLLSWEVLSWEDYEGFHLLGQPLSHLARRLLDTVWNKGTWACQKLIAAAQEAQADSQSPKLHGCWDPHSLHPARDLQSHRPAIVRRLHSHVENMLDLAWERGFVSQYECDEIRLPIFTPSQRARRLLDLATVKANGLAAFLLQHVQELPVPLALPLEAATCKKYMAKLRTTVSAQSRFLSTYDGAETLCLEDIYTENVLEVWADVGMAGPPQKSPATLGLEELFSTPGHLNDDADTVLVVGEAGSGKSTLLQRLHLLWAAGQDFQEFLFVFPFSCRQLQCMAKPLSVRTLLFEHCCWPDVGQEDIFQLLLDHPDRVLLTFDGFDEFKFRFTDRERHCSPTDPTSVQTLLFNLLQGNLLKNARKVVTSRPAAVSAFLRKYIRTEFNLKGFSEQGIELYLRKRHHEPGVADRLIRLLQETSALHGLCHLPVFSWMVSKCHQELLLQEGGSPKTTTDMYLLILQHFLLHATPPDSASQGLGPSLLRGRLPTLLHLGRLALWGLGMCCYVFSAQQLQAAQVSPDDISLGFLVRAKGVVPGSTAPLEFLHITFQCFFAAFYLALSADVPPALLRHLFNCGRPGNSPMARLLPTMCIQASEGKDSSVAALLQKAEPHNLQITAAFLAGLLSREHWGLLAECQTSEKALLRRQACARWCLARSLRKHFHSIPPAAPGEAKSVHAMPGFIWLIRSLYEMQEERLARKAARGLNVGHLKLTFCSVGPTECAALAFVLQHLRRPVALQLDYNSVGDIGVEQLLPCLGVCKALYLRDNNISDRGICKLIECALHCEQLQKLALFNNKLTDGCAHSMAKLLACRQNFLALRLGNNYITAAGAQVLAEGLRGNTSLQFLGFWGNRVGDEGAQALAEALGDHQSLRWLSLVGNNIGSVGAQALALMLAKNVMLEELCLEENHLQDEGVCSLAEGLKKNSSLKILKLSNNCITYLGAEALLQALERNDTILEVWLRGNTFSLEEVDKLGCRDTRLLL
T2 sequence (Q9Y239 whole entry, the tested form may be a part): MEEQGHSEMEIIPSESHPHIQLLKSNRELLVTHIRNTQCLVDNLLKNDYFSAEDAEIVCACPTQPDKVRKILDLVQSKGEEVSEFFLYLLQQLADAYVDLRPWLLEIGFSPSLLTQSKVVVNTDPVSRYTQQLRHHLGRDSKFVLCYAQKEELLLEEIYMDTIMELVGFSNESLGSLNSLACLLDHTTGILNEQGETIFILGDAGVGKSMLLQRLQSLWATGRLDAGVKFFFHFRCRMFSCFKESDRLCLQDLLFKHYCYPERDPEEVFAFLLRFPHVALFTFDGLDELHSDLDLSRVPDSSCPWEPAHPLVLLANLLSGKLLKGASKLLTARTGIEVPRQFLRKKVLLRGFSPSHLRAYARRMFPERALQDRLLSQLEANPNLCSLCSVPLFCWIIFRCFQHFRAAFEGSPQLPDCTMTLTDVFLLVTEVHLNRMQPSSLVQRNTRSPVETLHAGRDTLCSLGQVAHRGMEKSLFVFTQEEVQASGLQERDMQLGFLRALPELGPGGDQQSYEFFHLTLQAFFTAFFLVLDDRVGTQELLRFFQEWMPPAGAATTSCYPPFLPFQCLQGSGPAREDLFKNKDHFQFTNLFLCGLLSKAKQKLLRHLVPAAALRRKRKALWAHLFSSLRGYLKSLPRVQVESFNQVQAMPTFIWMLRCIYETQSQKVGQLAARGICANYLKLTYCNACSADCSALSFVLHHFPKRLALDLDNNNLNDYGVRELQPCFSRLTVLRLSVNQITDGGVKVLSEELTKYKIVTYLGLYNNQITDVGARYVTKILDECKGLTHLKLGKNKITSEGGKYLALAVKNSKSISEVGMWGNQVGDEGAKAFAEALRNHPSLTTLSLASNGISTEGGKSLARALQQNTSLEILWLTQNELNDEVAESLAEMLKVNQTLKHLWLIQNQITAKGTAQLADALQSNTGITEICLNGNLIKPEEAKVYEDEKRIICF
Tumor necrosis factor, sequence (P01375 whole entry, the tested form may be a part): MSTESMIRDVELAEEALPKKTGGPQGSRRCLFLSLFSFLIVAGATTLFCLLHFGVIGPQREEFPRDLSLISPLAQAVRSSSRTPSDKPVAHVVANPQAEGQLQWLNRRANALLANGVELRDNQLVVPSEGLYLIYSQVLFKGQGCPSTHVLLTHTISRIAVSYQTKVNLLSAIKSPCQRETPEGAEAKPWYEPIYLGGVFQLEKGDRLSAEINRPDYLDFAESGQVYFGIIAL
Signal transducer and activator of transcription 3, sequence (P40763 whole entry): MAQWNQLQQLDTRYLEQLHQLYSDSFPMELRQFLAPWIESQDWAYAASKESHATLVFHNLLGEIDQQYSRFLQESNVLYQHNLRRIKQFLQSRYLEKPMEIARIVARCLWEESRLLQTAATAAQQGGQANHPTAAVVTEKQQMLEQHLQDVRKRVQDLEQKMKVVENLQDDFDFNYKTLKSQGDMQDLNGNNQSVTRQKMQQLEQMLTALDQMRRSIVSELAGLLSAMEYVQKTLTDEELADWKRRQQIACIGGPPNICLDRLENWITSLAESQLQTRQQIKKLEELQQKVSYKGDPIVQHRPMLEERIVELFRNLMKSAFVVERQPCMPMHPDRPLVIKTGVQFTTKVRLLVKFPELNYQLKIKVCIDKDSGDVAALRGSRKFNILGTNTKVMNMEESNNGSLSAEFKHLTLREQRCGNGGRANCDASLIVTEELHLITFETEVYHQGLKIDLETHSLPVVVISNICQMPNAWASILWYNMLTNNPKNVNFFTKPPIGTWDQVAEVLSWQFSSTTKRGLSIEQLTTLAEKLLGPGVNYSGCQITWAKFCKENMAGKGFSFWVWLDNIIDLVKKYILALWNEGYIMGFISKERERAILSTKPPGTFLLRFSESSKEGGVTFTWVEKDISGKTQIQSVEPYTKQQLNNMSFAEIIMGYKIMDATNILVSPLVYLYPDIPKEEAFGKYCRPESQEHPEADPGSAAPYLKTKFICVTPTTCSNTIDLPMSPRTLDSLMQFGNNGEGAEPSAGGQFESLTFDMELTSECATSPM
Signal transducer and activator of transcription 1-alpha/beta, sequence (P42224 whole entry): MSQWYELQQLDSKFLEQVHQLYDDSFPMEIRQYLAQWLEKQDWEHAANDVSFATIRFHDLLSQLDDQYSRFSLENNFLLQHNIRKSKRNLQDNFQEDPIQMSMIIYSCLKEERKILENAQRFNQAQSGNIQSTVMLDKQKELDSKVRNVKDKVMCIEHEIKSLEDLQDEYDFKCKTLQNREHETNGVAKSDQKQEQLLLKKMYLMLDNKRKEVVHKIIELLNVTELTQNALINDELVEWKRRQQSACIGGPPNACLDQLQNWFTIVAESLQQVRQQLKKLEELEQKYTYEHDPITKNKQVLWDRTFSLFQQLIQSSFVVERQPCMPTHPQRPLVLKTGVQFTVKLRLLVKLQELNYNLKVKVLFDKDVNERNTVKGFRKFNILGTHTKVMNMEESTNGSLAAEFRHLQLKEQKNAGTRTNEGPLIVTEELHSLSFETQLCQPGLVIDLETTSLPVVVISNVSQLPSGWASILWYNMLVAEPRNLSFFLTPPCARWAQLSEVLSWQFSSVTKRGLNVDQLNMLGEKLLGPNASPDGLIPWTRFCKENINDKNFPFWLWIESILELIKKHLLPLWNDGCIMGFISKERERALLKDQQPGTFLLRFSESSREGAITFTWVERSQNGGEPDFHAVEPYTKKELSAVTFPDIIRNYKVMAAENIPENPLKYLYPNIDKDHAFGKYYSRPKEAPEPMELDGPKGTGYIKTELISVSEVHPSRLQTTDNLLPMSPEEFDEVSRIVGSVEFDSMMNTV

CC(C)Sc1nc2c(c(=O)[nH]c(=O)n2C)n1Cc1ccccc1
IC50 [1]: > 25 µM (inactive)
IC50 [2]: 18.5 µM (active)
IC50 [3]: > 20 µM (inactive)
IC50 [4]: > 20 µM (inactive)
IC50 [5]: 18.1 µM (active)
IC50 [6]: > 20 µM (inactive)
IC50 [7]: 1.99 µM (active)
IC50 [8]: > 20 µM (inactive)
IC50 [9]: 3.31 µM (active)

CC1(C)C(=O)Nc2ccccc2N1C(=O)COC(=O)c1cc(Cl)cc(Cl)c1
EC50 [10]: 65.2 µM (inactive)
EC50 [11]: 49.1 µM (inactive)

OC(c1ccccc1)C1CCN(c2ncnc3sccc23)CC1 (stereo not drawn)
IC50 [12]: 1.84 µM (active)
IC50 [13]: > 55.7 µM (inactive)

CN(Cc1ccccc1)C(=O)Nc1ccc(Cl)cc1
IC50 [14]: > 100 µM (inactive)
EC50 [15]: > 100 µM (inactive)

O=C(O)COc1ccc2ccccc2c1
IC50 [16]: > 100 µM (inactive)
IC50 [17]: > 99 µM (inactive)
IC50 [18]: > 100 µM (inactive)
IC50 [19]: > 100 µM (inactive)
IC50 [20]: > 100 µM (inactive)
IC50 [21]: 54.7 µM (active)
IC50 [22]: > 99 µM (inactive)
IC50 [23]: > 100 µM (inactive)
